Assay results as given in patent publication US6653081B2, “Methods for monitoring antiretroviral therapy and guiding therapeutic decision in the treatment of HIV/AIDS” (ViroLogic, Inc., priority 2000, dated 2003).
Where “and” joins values, the source holds several entries; their conditions need not be identical. Identical values can stand only once.

What was measured:
[1] = tested on: RTV-309; test: Phenotypic susceptibility assay, RTV-309; type: cell-based, HIV; settings: patient 1033 sample before any NNRTI
Excerpt: (§1) The resistance test vectors containing a functional luciferase gene cassette were constructed and host cells were transfected with the resistance test vector DNA. The resistant test vectors contained patient-derived reverse transcriptase and protease sequences that were either susceptible or resistant to the antiretroviral agents, such as nucleoside reverse transcriptase inhibitors, (NRTIs) non-nucleoside reverse transcriptase inhibitors […] protease inhibitors. The resistance test vector viral particles produced by transfecting the resistance test vector DNA into host cells, either in the presence or absence of PRIs, were used to infect target host cells grown either in the absence of NRTIs or NNRTIs, or in the presence of increasing concentrations of the drug. The amount of luciferase activity produced in infected target host cells in the presence of varying concentrations of drug was compared to the amount of luciferase produced in infected target host cells in the absence of drug. […] The IC50 values were determined by plotting percent drug inhibition vs. log10 drug concentration. Stimulation of viral replication was measured as the percent increase in luciferase activity detected when infection occurs in the presence of drug as compared to in the absence of drug.
(§2) Host cells were seeded in 10-cm-diameter dishes and were transfected several days after plating with resistance test vector plasmid DNA and the envelope expression vector. […] HIV capsid protein (p24) levels in the harvested cell culture media were determined by an EIA method as described by the manufacturer (SAIC; Frederick, Md.). […] The inhibitory effect of the drug was determined using the following equation: […]
(§3) where RLUluc [drug] is the Relative Light Unit of luciferase activity in infected cells in the presence of drug, and RLUluc is the Relative Light Unit of luciferase activity in infected cells in the absence of drug. […] The percent luciferase stimulation is the negative of the % inhibition calculated using the formula above. […]

[2] = tested on: RTV-005738; test: Phenotypic susceptibility assay, RTV-005738; type: cell-based, HIV; settings: patient 005738; for decrease in susceptibility: V245E with multiple other mutations
Excerpt: (§4) The resistance test vectors containing a functional luciferase gene cassette were constructed and host cells were transfected with the resistance test vector DNA. The resistant test vectors contained patient-derived reverse transcriptase and protease sequences that were either susceptible or resistant to the antiretroviral agents, such as nucleoside reverse transcriptase inhibitors, (NRTIs) non-nucleoside reverse transcriptase inhibitors […] protease inhibitors. The resistance test vector viral particles produced by transfecting the resistance test vector DNA into host cells, either in the presence or absence of PRIs, were used to infect target host cells grown either in the absence of NRTIs or NNRTIs, or in the presence of increasing concentrations of the drug. The amount of luciferase activity produced in infected target host cells in the presence of varying concentrations of drug was compared to the amount of luciferase produced in infected target host cells in the absence of drug. “Drug resistance” was measured as the amount of drug required to inhibit by 50% the luciferase activity detected in the absence of drug (inhibitory concentration 50%, IC50). The IC50 values were determined by plotting percent drug inhibition vs. log10 drug concentration. Stimulation of viral replication was measured as the percent increase in luciferase activity detected when infection occurs in the presence of drug as compared to in the absence of drug.
(§5) Host cells were seeded in 10-cm-diameter dishes and were transfected several days after plating with resistance test vector plasmid DNA and the envelope expression vector. Transfections were performed using a calcium-phosphate precipitation procedure. The cell culture media containing the DNA precipitate was replaced with fresh medium, from one to 24 hours, after transfection. Cell culture media containing resistance test vector viral particles was harvested one to four days after transfection and was passed through a […] filter before being used to infect target host cells, or being stored at −80° C. HIV capsid protein (p24) levels in the harvested cell culture media were determined by an EIA method as described by the manufacturer (SAIC; Frederick, Md.). Before infection, target cells (293 and 293/T) were plated in cell culture media. Control infections were performed using cell culture media from mock transfections (no DNA) or transfections containing the resistance test vector plasmid DNA without the envelope expression plasmid. One to three or more days after infection, the media was removed and cell lysis buffer (Promega) was added to each well. Cell lysates were assayed for luciferase activity (FIG. 3). The inhibitory effect of the drug was determined using the following equation:
(§6) % luciferase inhibition=1−(RLUluc[drug]÷RLUluc)×100
(§7) where RLUluc [drug] is the Relative Light Unit of luciferase activity in infected cells in the presence of drug, and RLUluc is the Relative Light Unit of luciferase activity in infected cells in the absence of drug. IC50values were obtained from the sigmoidal curves that were generated from the data by plotting the percent inhibition of luciferase activity vs. the log10 drug concentration. The percent luciferase stimulation is the negative of the % inhibition calculated using the formula above.
(§8) A resistance test vector was constructed as described in Example 1 from a virus sample obtained from patient 005738. The prior and current treatment regimens are unknown. Isolation of viral RNA and RT/PCR was used to generate a patient derived segment (PDS) that comprised viral sequences coding for all of PR and aa 1-313 of RT from both samples. The PDS were inserted into an indicator gene viral vector to generate a resistance test vector designated RTV-005738. RTV-005738 was then tested in a phenotypic assay to determine accurately and quantitatively the level of susceptibility to a panel of anti-retroviral drugs. […]

[3] = tested on: RTV-309-3; test: Phenotypic susceptibility assay, RTV-309-3; type: cell-based, HIV; settings: single clone from the RTV-309 pool
Excerpt: as §1, §2, §3

[4] = tested on: RTV-1033-3/106V; test: Phenotypic susceptibility assay, RTV-1033-3/106V; type: cell-based, HIV; settings: RTV-1033-3 with V106A reverted
Excerpt: as §4, §5, §6, §7
(§9) A resistance test vector containing all of the mutations present in RTV-1033-3 except for V106A (RTV-1033-3/106V) was constructed and tested using the phenotypic assay described earlier. The results were compared to those determined using the parent RTV-1033-3. We determined the pattern of phenotypic susceptibility to the NNRTIs, delavirdine, nevirapine and efavirenz, in the reverted vector, RTV-1033-3/106V.

[5] = tested on: RTV-012090; test: Phenotypic susceptibility assay, RTV-012090; type: cell-based, HIV; settings: patient CCTG-1025, week 48; for decrease in susceptibility: K101E, K103N, G190S, M230L
Excerpt: as §4, §5, §6, §7
Resistance test vectors were constructed as described in Example 1 from virus samples obtained from an individual patient at two separate time points over a 48-week period. […]

[6] = tested on: RTV-309-3/184M; test: Phenotypic susceptibility assay, RTV-309-3/184M; type: cell-based, HIV; settings: RTV-309-3 with M184V reverted
Excerpt: as §4, §5, §6, §7
as §9, with “RTV-309-3” for “RTV-1033-3”, “the M184V (RTV-309-3/184M)” for “V106A (RTV-1033-3/106V)”, “RTV-309-3.” for “RTV-1033-3.”, “RTV-309-3/184M.” for “RTV-1033-3/106V.”

[7] = tested on: RTV-012123; test: Phenotypic susceptibility assay, RTV-012123; type: cell-based, HIV; settings: patient 012123; for decrease in susceptibility: 245 with multiple other mutations
Excerpt: as §4, §5, §6, §7
as §8, with “012123.” for “005738.”, “RT.” for “RT from both samples.”, “RTV-012123. RTV-012123” for “RTV-005738. RTV-005738”

[8] = tested on: Y181C/M230L-RTV; test: Phenotypic susceptibility assay, Y181C/M230L-RTV; type: cell-based, HIV-1; settings: site-directed Y181C + M230L

Row | Compound | reduction in susceptibility [1] | drug-dependent stimulation of viral replication [2] [%] | decrease in susceptibility [2] [fold] | reduction in susceptibility [3] | drug-dependent stimulation of viral replication [4] | reduction in susceptibility compared to wild type control RTV [4] | drug-dependent stimulation of viral replication [5] [%] | decrease in susceptibility [5] [fold] | drug-dependent stimulation of viral replication [6] [%] | reduction in susceptibility compared to wild type control RTV [6] [fold] | drug-dependent stimulation of viral replication [7] [%] | decrease in susceptibility [7] [fold] | drug-dependent stimulation of viral replication [8] | reduction in susceptibility compared to wild type control RTV [8] | increase in susceptibility (hyper-susceptibility) compared to wild type control RTV [4] [fold]
1 | O=C1Nc2ccc(Cl)cc2[C@@](C#CC2CC2)(C(F)(F)F)O1 [efavirenz] | wild type pattern of susceptibility | ~20 | 17 | wild type pattern of susceptibility | ~20% | no reduction | ~40 | > 450 | ~60 | 5 | ~70 | > 450 | no drug-dependent stimulation | 25 fold | 
2 | CC(C)Nc1cccnc1N1CCN(C(=O)c2cc3cc(NS(C)(=O)=O)ccc3[nH]2)CC1 [delavirdine] | wild type pattern of susceptibility | ~40 | 63 | wild type pattern of susceptibility | no drug-dependent stimulation |  | ~30 | 144 | ~50 | 4 | ~80 | > 250 | no drug-dependent stimulation | > 250 fold | 20
3 | Cc1ccnc2c1NC(=O)c1cccnc1N2C1CC1 [nevirapine] | 3 fold | ~20 | > 600 | 3 fold | ~40% | 9 fold | ~80 | > 600 | ~80 | 9 | ~20 | > 600 | no drug-dependent stimulation | > 600 fold and > 800 fold | 
